How the values were obtained:
C57BL6 mice [1] = assay: Blood pressure by intravascular telemetry after pressor dose of Ang II; assay type: in vivo, mouse
Protocol: (§1) Mouse experiments, drug delivery, echocardiography and blood pressure measurement. All animal experiments were approved by the University of Washington Institutional Animal Care and Use Committee. C57BL6 mice were housed in a barrier specific pathogen-free facility. Six to ten mice were included in each experimental group (Saline, Ang II, Ang II+SS-31, WT, Gαq, Gαq+SS-31). A pressor dose of Ang II (1.1 mg/kg/d) was continuously administered for 4 weeks using subcutaneous Alzet 1004 osmotic minipumps, with or without addition of SS-31 (3 mg/kg/d). Echocardiography was performed at baseline and after 4 weeks of pump implantation using a Siemens Acuson CV-70 equipped with a 13 MHz probe. Under 0.5% isoflurane to reduce agitation, standard M-mode, conventional and Tissue Doppler images were taken, and functional calculations were performed according to American Society of Echocardiography guidelines. MP1 was calculated as the ratio of the sum of isovolemic contraction and relaxation time to LV ejection time. An increase in MPI is an indication that a greater fraction of systole is spent to cope with the pressure changes during the isovolemic phases. As a reference for SS-31 peptide effect in Ang II treated mice, a genetic mouse model of Rosa-26 inducible-mCAT was included, in which mitochondrial catalase was overexpressed two weeks before Ang II treatment.
Blood pressure was measured in a separate group of mice by telemetry using an intravascular catheter PA-C10 (DSI, MN), in which measurement was performed every three hours starting from 2 days before pump placement until 2 days after Ang pump placement.

[2] = system: cleaved caspase-3, phospho-p38 MAP kinase, p38; assay: Western immunoblots of cardiac protein extracts after 4 weeks of Ang II; assay type: in vivo, mouse; settings: for phosphorylation of p38 MAPK: 4 weeks Ang II (vs. saline) or Ang II + SS-31 (vs. Ang II)
Protocol: as §1
Western Immunoblots. Cardiac protein extracts were prepared by homogenization in lysis buffer containing protease and phosphatase inhibitors on ice (1.5 mM KCl, 50 mM Tris HCl, 0.125% Sodium deoxycholate, 0.375% Triton X 100, 0.15% NP40, 3 mM EDTA). The samples were sonicated and centrifuged at 10,000 g for 15 min in 4° C. The supernatant was collected and the concentration was determined using a BCA assay (Pierce Thermo Scientific, Rockford, IL). Total protein (25 μg) was separated on NuPAGE 4-12% Bis-Tris gel (Invitrogen) and transferred to 0.45 μm PVDF membrane (Millipore), and then blocked in 5% non-fat dry milk in Tris-buffer solution with 0.1% Tween-20 for 1 hour. Primary antibodies were incubated overnight, and secondary antibodies were incubated for 1 hour. The primary antibodies included: rabbit monoclonal anti-cleaved caspase-3 (Cell Signaling), mouse monoclonal anti-GAPDH (Millipore), rabbit polyclonal phospho-p38 MAP kinase (Cell Signaling), and mouse monoclonal anti-p38 (Santa Cruz Biotechnology). The enhanced chemiluminescence method (Thermo Scientific) was used for detection. Image Quant ver.2.0 was used to quantified the relative band density as a ratio to GAPDH (internal control). All samples were normalized to the same cardiac protein sample.

neonatal cardiomyocytes = assay: Mitosox flow cytometry of mitochondrial ROS in neonatal cardiomyocytes stimulated with Ang II; assay type: cell-based, mouse; settings: for effect on Ang II-induced Mitosox fluorescence / mitochondrial ROS: SS-31 1 nM or NAC 0.5 mM together with Ang II 1 μM for 3 hours
Protocol: Neonatal mouse cardiomyocyte culture and flow cytometry. Ventricles from mouse neonates younger than 72 hours were dissected, minced, and enzymatically digested with Blendzyme 4 (45 μg/ml, Roche). After enzymatic digestion, cardiomyocytes were enriched using differential pre-plating for 2 hours, then seeded on fibronectin-coated culture dishes for 24 hours in DMEM (Gibco), with 20% Fetal Bovine Serum (Sigma) and 25 μM Arabinosylcytosine (Sigma). Cardiomyocytes were stimulated with Angiotensin II (1 μM) for 3 hours in serum-free DMEM containing 0.5% insulin transferrin-selenium (Sigma), 2 mM glutamine, and 1 mg/ml of BSA. Cardiomyocytes were simultaneously treated with either of the following: SS-31 (1 nM), N-acetyl cysteine (NAC: 0.5 mM), or PBS control. To measure mitochondrial superoxide concentration, Mitosox (5 μM) was incubated for 30 min at 37° C. to load cardiomyocytes, followed by 2 washes, with Hanks Balanced Salt Solution. Samples were analyzed using excitation/emission of 488/625 nm by flow cytometry. Flow data was analyzed using FCS Express (De Novo Software, Los Angeles, CA), and presented as histogram distributions of Mitosox fluorescence intensity.

[3] = system: ANP, Collagen 1a2, PGC1-α, TFAM, NRF-1, NRF-2; assay: Quantitative PCR of cardiac gene expression after 4 weeks of Ang II; assay type: in vivo, mouse; settings: for expression of PGC-1α and downstream target genes TFAM, NRF-1 and NRF-2: 4 weeks Ang II (vs. saline) or Ang II + SS-31 (vs. Ang II)
Protocol: as §1
(§2) Quantitative PCR. Gene expression was quantified by quantitative real time PCR using an Applied Biosystems 7900 themocycler with Taqman Gene Expression Assays on Demand, which included: PGC1-α (Mm00731216), TFAM (Mm00447485), NRF-1 (Mm00447996), NRF-2 (Mm00487471), Collagen 1a2 (Mm00483937), and ANP (Mm01255747). Expression assays were normalized to 18S RNA.

NADPH oxidase = NADPH oxidase activity in ventricular protein extract after 4 weeks of Ang II; assay type: in vivo, mouse; settings: 4 weeks Ang II (vs. saline) or Ang II + SS-31 (vs. Ang II)
Protocol: as §1, with “An increase in MPI is an indication that a greater fraction of systole is spent to cope with the pressure changes during the isovolemic phases. As a reference for SS-31 peptide effect in Ang II treated mice, a genetic mouse model of Rosa-26 inducible-mCAT was included, in which mitochondrial catalase was overexpressed two weeks before Ang II treatment.” left out
NADPH Oxidase activity. […] In brief, […] of ventricular protein extract was incubated with dihydroethidium (DHE, 10 μM), sperm DNA (1.25 μg/ml), and NADPH (50 μM) in PBS/DTPA (containing 100 μM DTPA), The assay was incubated at 37° C. in the dark for 30 min and the fluorescence was detected using excitation/emission of 490/580 nm.

C57BL6 mice [4] = assay: Quantitative pathology of ventricular fibrosis (Masson Trichrome) after 4 weeks of Ang II; assay type: in vivo, mouse
Protocol: as §1, with “As a reference for SS-31 peptide effect in Ang II treated mice, a genetic mouse model of Rosa-26 inducible-mCAT was included, in which mitochondrial catalase was overexpressed two weeks before Ang II treatment.” left out
Quantitative Pathology. […] Quantitative analysis of fibrosis was performed by measuring the percentage of blue-staining fibrotic tissue relative to the total cross-sectional area of the ventricles.

[5] = system: mitochondrial protein carbonyl groups; assay: Cardiac mitochondrial protein carbonyl ELISA after 4 weeks of Ang II; assay type: in vivo, mouse; settings: 4 weeks Ang II (vs. saline) or Ang II + SS-31 (vs. Ang II)
Protocol: as §1, with “treatment. […]” for “treatment.”

C57BL6 mice [6] = assay: Ang II-induced cardiomyopathy: echocardiography and heart weight after 4 weeks; assay type: in vivo, mouse; settings: for Ea/Aa / LVMI: 4 weeks Ang II 1.1 mg/kg/d with or without SS-31 3 mg/kg/d; for heart weight (normalized to tibia length): 4 weeks Ang II with or without SS-31, saline 5.3±0.18; for change in LV end diastolic diameter (LVEDD) / change in fractional shortening (FS, systolic function): in the presence or absence of SS-31
Protocol: as §1

mu-opioid receptor = mu-opioid receptor (Homo sapiens, UniProt P35372); assay: mu-opioid receptor agonist activity (stated, no method); assay type: biochemical; settings: stated in the description, no test described
Chain of mu-opioid receptor (P35372 whole entry, species assumed): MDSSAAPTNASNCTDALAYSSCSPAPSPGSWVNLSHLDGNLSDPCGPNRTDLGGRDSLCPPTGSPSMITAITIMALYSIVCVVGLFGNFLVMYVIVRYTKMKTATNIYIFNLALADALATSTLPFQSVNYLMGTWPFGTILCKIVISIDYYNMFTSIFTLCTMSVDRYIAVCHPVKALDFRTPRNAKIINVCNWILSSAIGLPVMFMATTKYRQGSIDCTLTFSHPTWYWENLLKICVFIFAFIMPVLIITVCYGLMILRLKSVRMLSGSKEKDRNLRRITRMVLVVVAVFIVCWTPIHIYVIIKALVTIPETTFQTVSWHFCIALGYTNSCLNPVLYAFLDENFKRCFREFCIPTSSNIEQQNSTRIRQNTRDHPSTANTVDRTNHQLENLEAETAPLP

Gαq overexpressing mice = assay: Gαq overexpression-induced heart failure: echocardiography, organ weights, fibrosis, qPCR, protein carbonyls; assay type: in vivo, mouse
Protocol: as §1
Quantitative Pathology. Ventricular tissues were cut into transverse slices, and subsequently embedded with paraffin, sectioned, and subjected to Masson Trichrome staining. Quantitative analysis of fibrosis was performed by measuring the percentage of blue-staining fibrotic tissue relative to the total cross-sectional area of the ventricles.
Measurement of mitochondrial protein carbonyl groups. For mitochondrial protein extraction, ventricular tissues were homogenized in mitochondrial isolation buffer (1 mM EGTA, 10 mM HEPES, 250 mM sucrose, 10 mM Tris-HCl, pH 7.4). The lysates were centrifuged for 7 min at 800 g in 4° C. The supernatants were then centrifuged for 30 min at 4000 g in 4° C. The crude mitochondria pellets were resuspended in small volume of mitochondrial isolation buffer, sonicated on ice to disrupt the membrane, and treated with 1% streptomycin sulfate to precipitate mitochondrial nucleic acids. The OxiSelect™ Protein Carbonyl ELISA Kit (Cell Biolabs) was used to analyze 1 μg of protein sample per assay. The ELISA was performed according to the instruction manual, with slight modification. Briefly, protein samples were reacted with dinitrophenylhydrazine (DNPH) and probed with anti-DNPH antibody, followed by HRP conjugated secondary antibody. The anti-DNPH antibody and HRP conjugated secondary antibody concentrations were 1:2500 and 1:4000, respectively.
as §2

[7] = Ang II 1.1 mg/kg/d subcutaneous pump, FIG. 2B
[8] = SS-31 3 mg/kg/d with Ang II, 4 weeks
[9] = Gαq mice, SS-31 3 mg/kg/d for 4 weeks
[10] = Ang+SS-31 (3 mg/kg/d) vs. Ang, 4 weeks

Angiotensin II [Ang II]
increase in systolic and diastolic blood pressure above baseline (C57BL6 mice [1]; Ang II 1.1 mg/kg/d): 25-28 mm Hg
increase in diastolic pressure (C57BL6 mice [1]; [7]): 24.8 mm Hg
increase in systolic blood pressure (C57BL6 mice [1]; [7]): 27.2 mm Hg
diastolic blood pressure after Ang II (C57BL6 mice [1]; Ang II 1.1 mg/kg/d, baseline 94.5±3.5): 119.3±4.0 mm Hg
phosphorylation of p38 MAPK [2]: increased
increase in cleaved (activated) caspase-3 in left ventricular tissue ([2]; 4 weeks of Ang II): approximately 3 fold
protein levels of p38 MAP kinase ([2]; 4 weeks of Ang II, FIG. 6C): increased
increase of Mitosox fluorescence (indicator of mitochondrial superoxide) (neonatal cardiomyocytes; Ang II 1 μM, 3 hours, neonatal cardiomyocytes): approximately 2 fold
expression of PGC-1α and downstream target genes TFAM, NRF-1 and NRF-2 [3]: induced the expression
increase in ANP gene expression ([3]; 4 weeks of Ang II): ~15 fold
increase in Coll1a2 gene expression ([3]; 4 weeks of Ang II): ~2.5 fold
cardiac NADPH oxidase activity (NADPH oxidase): significantly increased
increase in ventricular fibrosis (blue staining on trichrome) (C57BL6 mice [4]; 4 weeks of Ang II): greater than 3 fold
ventricular mitochondrial protein carbonyl content [5]: significantly increased
Ea/Aa (C57BL6 mice [6]): 0.723±0.15
LVMI (C57BL6 mice [6]): 6.32 ± 0.39 mg/g
heart weight (normalized to tibia length) (C57BL6 mice [6]): 7.69±0.20 mg/mm
increase in heart weights above saline treated control hearts (C57BL6 mice [6]; 4 weeks of Ang II): 45%
decline in Ea/Aa (diastolic function) (C57BL6 mice [6]; 4 weeks of Ang II 1.1 mg/kg/d): ~35%
increase in left ventricular mass index (LVMI) compared with baseline (C57BL6 mice [6]; 4 weeks of Ang II 1.1 mg/kg/d): approximately 2 fold
change in LV end diastolic diameter (LVEDD) (C57BL6 mice [6]; 4 weeks of Ang II): no change
change in fractional shortening (FS, systolic function) (C57BL6 mice [6]; 4 weeks of Ang II): no change

CC(=O)N[C@@H](CS)C(=O)O [N-acetyl cysteine]
effect on Ang II-induced Mitosox fluorescence / mitochondrial ROS (neonatal cardiomyocytes): did not show any effect

D-Arg-2′,6′-Dmt-Lys-Phe-NH2 [SS-31]
effect on blood pressure (C57BL6 mice [1]; SS-31 3 mg/kg/d simultaneously with Ang II 1.1 mg/kg/d): did not show any effect
mu-opioid receptor agonist activity (mu-opioid receptor): does not have mu-opioid receptor agonist activity
phosphorylation of p38 MAPK [2]: significantly and nearly fully attenuated
effect on activation of caspase-3 caused by Ang II [2, 8]: completely prevented
effect on Ang II-induced Mitosox fluorescence / mitochondrial ROS (neonatal cardiomyocytes): reduced Ang II-induced mitosox fluorescence to the level similar to that of saline treated cardiomyocytes
expression of PGC-1α and downstream target genes TFAM, NRF-1 and NRF-2 [3]: fully prevent the upregulation
effect on Ang II-induced ANP gene expression [3, 8]: almost completely protected
effect on Ang II-induced Coll1a2 gene expression [3, 8]: almost fully attenuated
cardiac NADPH oxidase activity (NADPH oxidase): not changed
cardiac enlargement (normalized heart weight) (Gαq overexpressing mice; Gαq mice at 16 weeks of age, SS-31 3 mg/kg/d for 4 weeks): substantially reduced
increase in lung weights (lung congestion) (Gαq overexpressing mice; Gαq mice at 16 weeks of age, SS-31 3 mg/kg/d for 4 weeks, borderline significance p=0.09): slightly attenuated
cardiac expression of Coll1a2 gene (Gαq overexpressing mice; Gαq mice, 4 weeks of SS-31 treatment): not significantly altered
Gαq overexpression-induced heart failure (phenotype overall) (Gαq overexpressing mice; [9]): partially rescued
cardiac mitochondrial protein carbonyls (Gαq overexpressing mice; [9]): significant reduction
ventricular fibrosis (Gαq overexpressing mice; [9]): not changed
myocardial performance (MPI) (Gαq overexpressing mice; Gαq mice, SS-31 3 mg/kg/d from 12 to 16 weeks of age): improved
systolic function (FS) (Gαq overexpressing mice; Gαq mice, SS-31 3 mg/kg/d from 12 to 16 weeks of age, vs. untreated Gαq): significantly ameliorated
Ea/Aa (diastolic function) (Gαq overexpressing mice; Gαq mice, SS-31 3 mg/kg/d from 12 to 16 weeks of age, borderline significance p=0.06): better preserved
LV chamber enlargement (Gαq overexpressing mice; Gαq mice, SS-31 3 mg/kg/d from 12 to 16 weeks of age, p=0.08): slightly reduced
effect on Ang II-induced ventricular fibrosis (C57BL6 mice [4]; [8]): fully attenuated
ventricular mitochondrial protein carbonyl content [5]: significantly reduced
Ea/Aa (C57BL6 mice [6]): 1.17±0.11
LVMI (C57BL6 mice [6]): 4.21 ± 0.17 mg/g
heart weight (normalized to tibia length) (C57BL6 mice [6]): 6.05±0.135 mg/mm
change in LV end diastolic diameter (LVEDD) (C57BL6 mice [6]; 4 weeks of Ang II): not significantly changed
change in fractional shortening (FS, systolic function) (C57BL6 mice [6]; 4 weeks of Ang II): not significantly changed
better preservation of Ea/Aa (C57BL6 mice [6]; [10]): 38%
reduction of LVMI (C57BL6 mice [6]; [10]): 33%

From US12102659B2, “Methods for the prevention or treatment of heart failure” (Cornell University, priority 2009, dated 2024)
